Experimental data taken from patent US20180193361A1, “GUT ANTI-INFLAMMATORY AGENTS FOR REGULATION OF HIGH BLOOD GLUCOSE LEVELS” (UNIVERSITY HEALTH NETWORK, priority 2015, published 2018).

What was measured:
[1] = tested on: gluconeogenesis enzyme and adipogenesis-related genes; assay: q-PCR of gluconeogenesis and adipogenesis genes, HFD or HFD 5-ASA mice; format: in vivo
Description: We extracted total RNA from isolated or cultured cells using a RNeasy Mini Kit (Qiagen), and for subcutaneous adipose tissue (SAT) and VAT we used a RNeasy Lipid Extraction kit (Qiagen). We reverse-transcribed the RNA by random primers with M-MLV (Invitrogen). We performed q-PCR with a 7900HT PCR system (Applied Biosystems) using SYBR® Green master mix reagent (Applied Biosystems). We assessed expression of adipocyte P2 (aP2), CCAAT/enhancer-binding protein-α (CEBPα), Peroxisome proliferator-activated receptor-γ (PPARγ), and sterol regulatory element-binding protein (SREBP) cDNA. […] We calculated relative fold changes in gene expression normalized to 18s or GAPDH by the ΔΔCT method using the equation 2-ΔΔCT. The results are shown as fold changes compared to the control group.

Rag1null mice = assay: Metabolic studies, Rag1null mice on HFD 5-ASA; format: in vivo; conditions: HFD vs HFD 5-ASA 1500 mg/kg/day, 8 weeks
Method: (§1) Mice. Mice were fed either NCD (15 kcal % fat) or HFD (Research Diets, 60 kcal % fat, irradiated) starting at 6 weeks of age. All studies were performed under the approval of Animal User Protocols by the Animal Care Committee at the University Health Network. Mice were maintained in a pathogen-free, temperature-controlled environment on a 12-hour light and dark cycle. All mice used in comparative studies were male, age-matched, and litter mates where possible.
(§2) We measured body weights, GTTs, ITTs, serum insulin, and fat cell diameter as previously described (Winer et al., 2009a). All GTTs were performed with a 1.5 g/kg glucose i.p. injection unless indicated otherwise.

Beta7null mice = assay: Metabolic studies, Beta7null mice on HFD 5-ASA; format: in vivo; conditions: HFD vs HFD 5-ASA, 12 weeks
Method: as §1, §2

[2] = tested on: Lck-Cre PPARγfl/fl T cells; assay: In vitro IFNγ secretion, T cells lacking PPARγ (Lck-Cre PPARγfl/fl); format: cell-based, mice; conditions: HFD-fed Lck-Cre+ PPARγfl/fl vs WT, 5-ASA in vitro 0.01-1 mM
Method: Mice. Mice were fed either NCD (15 kcal % fat) or HFD (Research Diets, 60 kcal % fat, irradiated) starting at 6 weeks of age. All studies were performed under the approval of Animal User Protocols by the Animal Care Committee at the University Health Network. Mice were maintained in a pathogen-free, temperature-controlled environment on a 12-hour light and dark cycle. All mice used in comparative studies were male, age-matched, and litter mates where possible. […] We confirmed T cell-specific floxing of the PPARγ gene in Lck-Cre+ PPARγfl/fl mice by qPCR with a minimum of at least 90% reduction in PPARγ expression. […] To measure the effect of IFNγ on tight-junction gene expression, we treated MODE-K cells with recombinant mouse IFNγ (Biolegend). We purified bulk dendritic cells and T cells from murine small bowels and spleens using a negative selection DC or T cell isolation kit (Stem Cell Technologies). We plated T cells at 5×10^5 cells/well with plate-bound anti-CD3/CD28 (1 μg/ml, Biolegend). […] We collected supernatants for cytokine measurements after 72 hour incubation. […] We measured serum cytokines by Luminex Multiplex cytokine assay (Millipore, run by the UHN Microarray Center), and quantified IL-10 and IFN-γ in supernatants of anti-CD3/CD28-stimulated splenocytes or bowel immune cells (Winer et al., 2009b) by ELISA (Biolegend).

[3] = tested on: intestinal epithelial barrier; assay: Gut permeability assay (FD4); format: in vivo, mice; conditions: HFD vs HFD 5-ASA, 12-16 weeks of diet, 4 hours after gavage
Method: We measured gut permeability in overnight fasted mice 4 hours after oral gavage with 0.4 mg/g of FITC-conjugated dextran (Sigma) as described (Dong et al., 2014).

[4] = tested on: oral tolerance to OVA antigen; assay: Oral tolerance studies (OVA); format: in vivo, mice; conditions: HFD 5-ASA vs HFD
Method: We administered oral ovalbumin (OVA) in the form of drinking water (1 mg/mL) for 7 days to NCD-, HFD- or HFD 5-ASA-fed mice to induce oral tolerance. Average consumption was similar across different groups, at 5 mL per day. Following oral tolerance induction, we immunized animals with or without oral tolerance induction subcutaneously with OVA/CFA (50 μg per side) on both sides of the chest. Axillary draining lymph nodes and VAT were collected 7 days following immunization and subjected to immunological analysis, including OVA323-339/I-A^b tetramer staining and OVA-induced cytokine production and proliferation in vitro. Briefly, we processed axillary lymph nodes into single-cell suspension through a 70 μm filter and cultured the cells (5×10^5/well) in 96-well U-bottom plate with indicated concentrations of OVA (Sigma). We collected culture supernatants at 48 h for determination of IL-2 and IFNγ via ELISA (Biolegend). To measure OVA-specific antibody responses, we performed ELISA by plating diluted serum samples (1:200-1:4000) onto OVA-coated ELISA plates (10 μg/mL), followed by biotinylated anti-mouse isotype-specific secondary antibodies (1:5000 dilution) (Southern Biotech) and HRP-conjugated streptavidin (Biolegend). To measure-OVA-specific Tregs, we stained VAT immune cells with a 1:200 dilution of PE-conjugated OVA323-339/I-A^b or control hCLIP/I-A^b tetramers (NIH Tetramer Core Facility) in FBS-supplemented RPM-I for 4 hours at 37° C., followed by antibody staining for other surface antigens and Foxp3.

Nc1ccc(O)c(C(=O)O)c1 [5-ASA, 5-aminosalicylic acid]
gluconeogenesis enzyme gene expression ([1]; HFD vs HFD 5-ASA 1500 mg/kg/day): could not detect significant changes
expression of adipogenesis-related genes ([1]; VAT or SAT, HFD 5-ASA relative to HFD, 18 weeks of diet): no effects
IR (Rag1null mice): no effect
body weight (Rag1null mice): no effect
glucose tolerance (Rag1null mice): no effect
IR (Beta7null mice): no major effects
glucose tolerance (Beta7null mice): no major effects
suppressive effects on IFNγ with loss of PPARγ in T cells [2]: abrogated
intestinal epithelial barrier permeability (plasma FD4) [3]: significant improvements
OVA-specific IgA ([4]; oral OVA then OVA-CFA immunization): nearly threefold increase
antigen-specific Tregs to OVA in VAT ([4]; OVA/I-Ab tetramers): nearly fourfold increase
OVA-specific T cell-derived IFNγ ([4]; draining lymph nodes): reduction
OVA-specific T cell-derived IL-2 ([4]; draining lymph nodes): reduction
